These results are taken from US20240246940A1, “HETEROARYL DERIVATIVE COMPOUND AND USE THEREOF” (VORONOI INC., priority 2021, published 2024).

The IC50 is the point on the concentration scale where inhibition reaches its midpoint. Higher therefore signals lower potency. As usually defined, the GI50 is the concentration that inhibits growth by half.

For assay [1], the target named is T1, HER2 (Homo sapiens, UniProt P04626).
T1 construct: purchased Reaction Biology Corp
The assay is described as follows: Biochemical kinase assay for HER2 (Reaction Biology Corp), ATP 10 μM, 10-dose IC50. The procedure:
(§1) Biochemical kinase assays for HER2 and EGFR were performed by Reaction Biology Corp (San Diego, USA).

Assay [2] concerns SK-BR-3 cells (HER2 overexpressing cell line). The experiment in a line: SK-BR-3 cell proliferation inhibitory activity (CellTiter-Glo, 120 hours). In kind it is cell-based. The following applies: Homo sapiens. In a few lines:
(§2)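 Luminescent viability read-out, growth % vs control → GI50, n=3. Seeding: SK-BR-3/BT-474 5000 cells, 48 h pre-plating; N-87 5000, 24 h; HaCaT 3000, 24 h. Dose ranges: 0.2 nM–10 μM (SK-BR-3, BT-474; 3-fold), […]–5 μM (N-87; 5-fold), 0.8 nM–45 μM (HaCaT; 3-fold).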
(Cellular ATP, detected with luciferase, serves as a proxy for viable cell number.)

Assay [3] has as its system BT-474 cells (HER2 overexpressing cell line). The experiment in a line: BT-474 cell proliferation inhibitory activity (CellTiter-Glo, 120 hours). In kind it is cell-based. The following applies: Homo sapiens. In short, it runs like this:
as §2

In assay [4] the test system is HaCaT cells (EGFR expressing cell line). The assay is described as follows: HaCaT cell proliferation inhibitory activity (CellTiter-Glo, 72 hours). The class given is cell-based. Conditions: Homo sapiens. In a few lines:
as §2

In assay [5] the test system is Ba/F3 cells expressing HER2 L869R. The experiment in a line: Transduced Ba/F3 cell proliferation inhibitory activity, HER2 L869R. In kind it is cell-based. The following applies: Mus musculus, BaF3, 72 hours. The procedure:
(§3) For Ba/F3 cells, RPMI-1640 supplemented with 10% FBS and 5 ng/ml IL-3 (R&D Systems) was used. Transduced Ba/F3 cells were cultured by adding 1 μg/ml puromycin (Invitrogen) to the same medium.
(§4) 3000 to 5000 cells were aliquoted into each well of a white clear bottom 96 well plate (Corning) 24 hours before treatment with the compounds of Examples. The compounds of Examples were diluted in dimethyl sulfoxide (three-fold dilution, a total of 12 concentrations) and injected each in an amount of 1 μl to a final concentration of 0.2 nM to 5 μM. For the measurement of living cells, the cells were stored at room temperature for 10 minutes using CellTiter-Glo luminescent cell-viability reagent (Promega) in 72 hours after treatment with the compounds of Examples, and the luminescence intensity thereof was measured using a reader (SynergyNeo, Biotek). Each test was repeated three times. The result values were calculated as a cell growth rate (%) compared to those of the control group. A graph was created using the GraphPad Prism version 8.3.0 program, and GI50 values were calculated.

Assay [6] has as its system Ba/F3 cells expressing HER2 L756S. The assay is described as follows: Transduced Ba/F3 cell proliferation inhibitory activity, HER2 L756S. The following applies: Mus musculus, BaF3; Ba/F3 HER2 L755S, 72 hours. In kind it is cell-based. The procedure: as §3, §4
Assay [7] concerns Ba/F3 cells expressing HER2 T798I. The assay is described as follows: Transduced Ba/F3 cell proliferation inhibitory activity, HER2 T798I. The class given is cell-based. The following applies: Mus musculus, BaF3, 72 hours. The procedure:
as §3, §4

In assay [8] the test system is Ba/F3 cells expressing HER2 T862A. The assay is described as follows: Transduced Ba/F3 cell proliferation inhibitory activity, HER2 T862A. The class given is cell-based. The following applies: Mus musculus, BaF3, 72 hours. The procedure: as §3, §4
Assay [9] relates to Ba/F3 cells expressing EGFR G719A. The experiment in a line: Transduced Ba/F3 cell proliferation inhibitory activity, EGFR G719A. In kind it is cell-based. Conditions: Mus musculus, BaF3, 72 hours. The procedure:
as §3, §4

The test system of assay [10] is Ba/F3 cells expressing EGFR L861Q. The experiment in a line: Transduced Ba/F3 cell proliferation inhibitory activity, EGFR L861Q. In kind it is cell-based. Conditions: Mus musculus, BaF3, 72 hours. The procedure:
as §3, §4

Assay [11] has as its system Ba/F3 cells expressing EGFR S768I. The experiment in a line: Transduced Ba/F3 cell proliferation inhibitory activity, EGFR S768I. The class given is cell-based. The following applies: Mus musculus, BaF3, 72 hours. The procedure: as §3, §4
Assay [12] relates to Ba/F3 cells expressing EGFR G719A/S768I. The experiment in a line: Transduced Ba/F3 cell proliferation inhibitory activity, EGFR G719A/S768I. The class given is cell-based. Conditions: Mus musculus, BaF3, 72 hours. The procedure:
as §3, §4

For assay [13], the system named is Ba/F3 cells expressing EGFR Del19/T790M. The experiment in a line: Transduced Ba/F3 cell proliferation inhibitory activity, EGFR Del19/T790M. In kind it is cell-based. Conditions: Mus musculus, BaF3, 72 hours. The procedure: as §3, §4
In assay [14] the test system is Ba/F3 cells expressing HER2 WT. The assay is described as follows: Transduced Ba/F3 cell proliferation inhibitory activity, HER2 WT. The class given is cell-based. The following applies: Mus musculus, BaF3, 72 hours. The procedure:
as §3, §4

The subject of assay [15] is Ba/F3 cells expressing EGFR WT. The assay is described as follows: Transduced Ba/F3 cell proliferation inhibitory activity, EGFR WT. In kind it is cell-based. The following applies: Mus musculus, BaF3, 72 hours. The procedure: as §3, §4
Assay [16] concerns the target T2, EGFR (Homo sapiens, UniProt P00533).
T2 construct: purchased Reaction Biology Corp
The assay is described as follows: Biochemical kinase assay for EGFR (Reaction Biology Corp), ATP 10 μM, 10-dose IC50. The procedure: as §1

Assay [17] deals with N-87 cells (HER2 overexpressing cell line). The experiment in a line: N-87 cell proliferation inhibitory activity (CellTiter-Glo, 72 hours). The class given is cell-based. In short, it runs like this: as §2

T1 sequence (P04626 23-1255): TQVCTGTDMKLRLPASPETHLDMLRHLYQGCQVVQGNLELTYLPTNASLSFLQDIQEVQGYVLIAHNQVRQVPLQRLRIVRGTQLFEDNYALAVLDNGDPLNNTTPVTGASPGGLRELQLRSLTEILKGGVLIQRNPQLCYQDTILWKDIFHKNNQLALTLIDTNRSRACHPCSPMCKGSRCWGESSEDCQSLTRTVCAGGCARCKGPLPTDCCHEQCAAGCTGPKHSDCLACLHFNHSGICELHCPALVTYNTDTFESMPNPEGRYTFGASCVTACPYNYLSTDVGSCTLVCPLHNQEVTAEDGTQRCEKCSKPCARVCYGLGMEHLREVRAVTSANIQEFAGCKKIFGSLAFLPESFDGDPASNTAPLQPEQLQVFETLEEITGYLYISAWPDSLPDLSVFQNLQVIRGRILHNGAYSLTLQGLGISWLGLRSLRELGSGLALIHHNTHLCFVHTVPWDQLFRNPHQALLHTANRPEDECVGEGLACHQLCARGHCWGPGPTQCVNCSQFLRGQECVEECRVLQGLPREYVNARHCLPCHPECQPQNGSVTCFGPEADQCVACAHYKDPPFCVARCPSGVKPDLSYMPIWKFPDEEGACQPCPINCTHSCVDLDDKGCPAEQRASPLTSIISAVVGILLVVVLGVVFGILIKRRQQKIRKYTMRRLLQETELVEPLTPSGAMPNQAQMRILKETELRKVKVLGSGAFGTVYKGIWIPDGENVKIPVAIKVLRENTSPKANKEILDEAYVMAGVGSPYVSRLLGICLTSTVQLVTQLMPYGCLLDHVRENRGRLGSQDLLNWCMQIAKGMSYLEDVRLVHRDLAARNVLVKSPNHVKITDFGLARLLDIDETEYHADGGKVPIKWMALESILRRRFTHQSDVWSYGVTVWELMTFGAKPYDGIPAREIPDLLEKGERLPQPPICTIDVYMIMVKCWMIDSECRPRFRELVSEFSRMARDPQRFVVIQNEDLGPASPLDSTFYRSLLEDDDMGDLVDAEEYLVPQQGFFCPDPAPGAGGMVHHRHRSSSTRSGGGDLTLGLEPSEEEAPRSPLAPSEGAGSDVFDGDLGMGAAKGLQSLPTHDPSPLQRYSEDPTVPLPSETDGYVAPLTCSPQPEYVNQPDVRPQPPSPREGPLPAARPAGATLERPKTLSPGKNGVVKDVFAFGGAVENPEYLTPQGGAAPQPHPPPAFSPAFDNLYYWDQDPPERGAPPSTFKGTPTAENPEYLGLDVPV
T2 sequence (P00533 25-1210): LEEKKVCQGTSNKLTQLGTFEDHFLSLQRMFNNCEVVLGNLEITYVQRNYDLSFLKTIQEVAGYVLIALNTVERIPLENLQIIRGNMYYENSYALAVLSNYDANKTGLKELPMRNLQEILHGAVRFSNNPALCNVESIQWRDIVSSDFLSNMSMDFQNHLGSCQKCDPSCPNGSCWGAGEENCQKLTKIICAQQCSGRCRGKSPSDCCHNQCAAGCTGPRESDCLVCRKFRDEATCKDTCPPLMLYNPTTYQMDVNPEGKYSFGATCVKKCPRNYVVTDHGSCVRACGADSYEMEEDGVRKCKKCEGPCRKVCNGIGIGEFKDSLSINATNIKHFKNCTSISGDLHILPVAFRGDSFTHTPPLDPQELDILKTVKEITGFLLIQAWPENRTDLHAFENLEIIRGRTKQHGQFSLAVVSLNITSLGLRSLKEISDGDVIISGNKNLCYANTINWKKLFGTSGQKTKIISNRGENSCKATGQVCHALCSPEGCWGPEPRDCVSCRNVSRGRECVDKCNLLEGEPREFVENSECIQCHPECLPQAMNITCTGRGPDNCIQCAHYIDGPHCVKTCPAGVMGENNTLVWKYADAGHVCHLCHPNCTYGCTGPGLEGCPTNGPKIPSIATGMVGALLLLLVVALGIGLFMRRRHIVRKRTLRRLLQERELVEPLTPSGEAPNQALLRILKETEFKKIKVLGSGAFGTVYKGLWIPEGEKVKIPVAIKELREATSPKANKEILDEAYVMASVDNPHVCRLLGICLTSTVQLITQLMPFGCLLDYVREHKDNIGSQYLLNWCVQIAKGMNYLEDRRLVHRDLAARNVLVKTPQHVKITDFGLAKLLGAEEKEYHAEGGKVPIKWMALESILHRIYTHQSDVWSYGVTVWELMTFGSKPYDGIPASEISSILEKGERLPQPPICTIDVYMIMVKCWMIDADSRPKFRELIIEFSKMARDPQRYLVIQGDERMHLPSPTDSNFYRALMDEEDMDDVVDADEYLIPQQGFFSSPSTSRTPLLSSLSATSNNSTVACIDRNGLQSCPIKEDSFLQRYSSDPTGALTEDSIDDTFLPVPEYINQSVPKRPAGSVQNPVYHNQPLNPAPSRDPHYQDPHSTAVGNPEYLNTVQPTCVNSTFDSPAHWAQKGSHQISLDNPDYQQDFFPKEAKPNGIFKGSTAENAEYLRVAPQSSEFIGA

`C=CC(=O)N1CCC(Oc2cc3c(Nc4cc(-c5ccco5)ccc4OC)ncnc3cc2OC)CC1` [Example 80, 1-(4-((4-((5-(furan-2-yl)-2-methoxyphenyl)amino)-7-methoxy-quinazolin-6-yl)oxy)piperidin-1-yl)prop-2-en-1-one]: in [1], the IC50 was no more than 50 nM. Further, the 50% growth inhibitory concentration (GI50) in assay [2] is no more than 150 nM; in assay [3], no more than 150 nM; in assay [4], no more than 150 nM; in [5] it was no more than 50 nM; in assay [6], no more than 50 nM; in [7], no more than 50 nM. Also, the GI50 in [8], in assay [9], in assay [10], in assay [11], in [12] and in [13] was no more than 50 nM in each case. Moreover, the 50% growth inhibitory concentration (GI50) in assay [14] and in assay [15] was no more than 50 nM each time.
Regarding `C=CC(=O)N1CCC(Oc2cc3c(Nc4cc(-c5ccc(F)cc5F)ccc4OC)ncnc3cc2OC)CC1` [Example 68, 1-(4-((4-((2′,4′-difluoro-4-methoxy-[1,1′-biphenyl]-3-yl)amino)-7-methoxy-quinazolin-6-yl)oxy)piperidin-1-yl)prop-2-en-1-one], the IC50 in [1] and in assay [16] was no more than 50 nM in each case. For the same molecule, the GI50 was no more than 150 nM in assay [2]; no more than 150 nM in [3]; no more than 150 nM in assay [17]; no more than 150 nM in [4]; no more than 50 nM in assay [5]; no more than 50 nM in assay [6]. Further, the 50% growth inhibitory concentration (GI50) in [7] was 100 to 500 nM; in assay [8], no more than 50 nM; in [9] it was no more than 50 nM; in [10], no more than 50 nM; in assay [11] it was 50 to 100 nM; in [12] it was no more than 50 nM. Besides, the concentration for 50% growth inhibition (GI50) in assay [13] is no more than 50 nM; in [14], no more than 50 nM; in [15], 50 to 100 nM.
For the molecule `COc1cc2ncnc(Nc3cc(-c4ccco4)ccc3OC)c2cc1NC(=O)/C(F)=C\[C@H]1CCCN1C` [Example 307, (R,E)-2-fluoro-N-(4-((5-(furan-2-yl)-2-methoxyphenyl)amino)-7-methoxyquinazolin-6-yl)-3-(1-methylpyrrolidin-2-yl)acrylamide], the 50% growth inhibitory concentration (GI50) in assay [2] is no more than 150 nM; in assay [3], no more than 150 nM; in assay [17] it was no more than 150 nM; in assay [4], no more than 150 nM; in assay [11], no more than 50 nM; in assay [15], no more than 50 nM.
As to `COc1cc2ncnc(Nc3cc(-c4ccco4)ccc3OC)c2cc1NC(=O)/C=C/[C@H]1CCCN1C` [Example 306, (R,E)-N-(4-((5-(furan-2-yl)-2-methoxyphenyl)amino)-7-methoxyquinazolin-6-yl)-3-(1-methylpyrrolidin-2-yl)acrylamide], the concentration for half-maximal inhibition (IC50) in assay [1] and in assay [16] was no more than 50 nM throughout. Also, the 50% growth inhibitory concentration (GI50) in assay [2] was no more than 150 nM; in assay [3], no more than 150 nM; in assay [17], no more than 150 nM; in [4], no more than 150 nM; in assay [11], no more than 50 nM; in assay [15], no more than 50 nM.
